“Also recorded” adds a separate entry of the source. Where two headings read alike, the source gives them in different places.
Legend:
[1] = test system: DRG neurons from CCI rats; assay: Calcium imaging of cultured DRG neurons from CCI rats; format: cell-based, rat; conditions: 1 μM, before (5 min), during and after 100 nM CCL2; n = 6 cells
Procedure: Since rCCL2 can activate both CCR2 and CCR5 [25] we used AZ889 to test if a selective CCR2 antagonist can prevent CCL2-induced calcium signalling in native tissue.
Ganglia from L4 to L6 dorsal roots were harvested from CCI animals, 4 to 19 days post-surgery. The tissue was enzymatically digested at 37°C for 90 min with collagenase-A (2 mg/mL) and papain (1 mg/mL) in DMEM. Cells were plated on Poly-D-Lysine coated coverslips and maintained in F12 supplemented with 10% heat inactivated horse serum, 2 mM glutamine-penicillin-streptomycin, and 2 ng/ml NGF and GDNF for 1-3 days in a humidified chamber (5% CO2/95% O2).

rat CCR2 receptor = biological target: T1, rat CCR2 receptor (Rattus norvegicus, UniProt O55193); assay: Calcium flux assay (FLIPR) in HEK293 s cells (Gαqi5) stably expressing rat CCR2; format: cell-based; conditions: read-out: EC50, calcium activation of HEK293 s cells expressing CCR2
T1 construct: expressed in transfected cells; host or cells: HEK293s cells co-expressing chimeric Gαqi5
T1 sequence (O55193 1-373): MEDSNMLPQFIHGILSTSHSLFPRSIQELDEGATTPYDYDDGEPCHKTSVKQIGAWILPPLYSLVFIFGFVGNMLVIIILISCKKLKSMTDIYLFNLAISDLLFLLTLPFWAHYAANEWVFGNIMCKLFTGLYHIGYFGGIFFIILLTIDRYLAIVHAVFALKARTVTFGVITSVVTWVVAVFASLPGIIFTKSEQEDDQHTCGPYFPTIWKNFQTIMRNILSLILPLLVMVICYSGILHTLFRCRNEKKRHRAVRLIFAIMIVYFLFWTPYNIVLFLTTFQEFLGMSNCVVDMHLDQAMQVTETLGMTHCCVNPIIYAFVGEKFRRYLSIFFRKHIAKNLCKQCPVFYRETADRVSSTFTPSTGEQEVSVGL
Excerpt: Chemokine receptors are known to modulate intracellular calcium concentration. A library of designed molecules was screened on HEK cells expressing the receptor using a calcium flux-assay (FLIPR). Compounds capable of blocking the intracellular calcium rise evoked by mouse CCL2 in HEK293 s cells (Gαqi5) stably expressing the rat CCR2 receptor were selected and further profiled by performing dose-response curves. Mouse and rat CCL2 (mCCL2 and rCCL2) purchased from R&D Systems gave similar median effective concentrations (EC50) values (Additional file 1 Figure S1) and mCCL2 was selected to conduct the screening assay. Cells were pre-incubated (30 min) with a given concentration of compound (from 0.04 to 1 μM) and CCR2 calcium-mediated activation was evoked by the addition of mCCL2 (EC50 concentration, 1 nM).
Briefly, HEK293 s cells stably expressing rat CCR2 and the chimeric Gαqi5 were plated (15000 cells per well) in 384-well assay plates in Dulbecco's modified Eagle's medium (DMEM) for 24 h in a humidified atmosphere at 37°C in 5% CO2. After removing the medium by inversion, cells were loaded with the calcium-sensitive dye Fluo4-AM (Molecular Devices), 15 μL per well of 4 μM FLUO-4/Pluronic acid mix (1 mM) in buffer and incubated at 37°C for 1 h in a humidified chamber (5% CO2/95% air). Cells were washed 4 times in Hanks' balanced salt solution buffer supplemented with 20 mM HEPES + 0.25% bovine serum albumin at pH 7.4. Different concentrations of the test compound (from 10 mM stock in dimethyl sulfoxide) were added in buffer for 30 min at 37°C in 5% CO2. In this assay, mouse CCL2 was added at 1 nM in buffer (EC50 value in Figure 1) and mobilization of intracellular calcium was measured online (FLIPR, Molecular Devices). The EC50 and IC50 values were determined using 8-point concentration-response curve using non-linear regression and a four-parameter logistic model (Prism 4.03 software, GraphPad Software Inc).

[2] = test system: neuronal cells in spinal cord slices from CCI rats; assay: Calcium imaging of neurons in spinal cord slices from CCI rats; format: cell-based, rat; conditions: bath application of 50 nM CCL2; n = 5
Procedure: (§1) To evaluate this we used spinal cord slices from CCI rats and evaluated if neuronal and non-neuronal cell types were sensitive to CCL2. For these recordings, calcium imaging acquisition was focused on lamina I of the dorsal horn. […] In this region, non-neuronal cells included astrocytes, microglia and other types of glial cells.
(§2) Spinal cord slices from L4 to L6 region were prepared from CCI animals, 4 to 19 days post-surgery, following guidelines by Wan and colleagues. In order to prevent excess bleeding, 20 uL of Xylocaine was injected intramuscularly at several sites on both sides of the spinal cord. Under deep anaesthesia a laminectomy (T11 to L5) was performed. Once exposed, the spinal cord was isolated and submerged in oxygenated ice-cold solution containing (in mM): 250 sucrose, 5 KCl, 2 MgSO4, 1.25 NaH2PO4, 26 NaHCO3 and 10 glucose.

[3] = test system: DRG cells harvested from naive rats; assay: Calcium imaging of DRG cells harvested from naive rats; format: cell-based, rat; conditions: data not shown
Excerpt: An increased number of action potentials in DRG neurons following CCR2 activation is an intriguing observation since CCR2 is a pertussis toxin (PTX)-sensitive GPCR coupled to inhibitory Gi and/or […]. Additionally, CCR2 activation evokes excitatory Ca^2+ rises in DRG cells but the underlying mechanism is still poorly understood. To gain further insight into CCR2-mediated Ca^2+ mobilization, we next evaluated the sensitivity of both neuronal and non-neuronal cell types in the DRG by recording changes in intracellular calcium evoked by CCL2. […] In mixed-cell cultures from CCI rats, CCL2 evoked an intracellular calcium rise in both neuronal and non-neuronal DRG cells (Figure 3A-C). Non-neuronal cells, satellite cells or microglia, were easily distinguished from neurons by their size, morphology and absence of dendritic processes (Figure 3A).
Cells and spinal cord slices were loaded with Fluo4-AM (4 μM, 30 min) in an oxygenated chamber (5% CO2/95% O2). DRG cells and spinal cord slices were washed in PBS and ACSF respectively and placed in a chamber mounted on the stage of a fluorescent microscope (Olympus). […] For each time-lapse image, the fluorescence intensity (F) was averaged over the soma area. Changes in fluorescence (ΔF) were measured as relative changes from baseline fluorescence (F0) and expressed as: […]

[4] = test system: non-neuronal cells in spinal cord slices from CCI rats; assay: Calcium imaging of non-neuronal cells in spinal cord slices from CCI rats; format: cell-based, rat; conditions: bath application of 50 nM CCL2; n = 4
Procedure: as §1, §2

[5] = test system: DRG neurons from CCI rats; assay: Whole-cell patch clamp, evoked action potential firing in DRG neurons from CCI rats; format: cell-based, rat
Procedure: To assess whether DRG neurons from rats with chronic constriction injury (CCI) were also CCL2-sensitive, we performed whole-cell patch clamp recordings to evaluate the effect of the chemokine on cell excitability. A suprathreshold (500 ms) depolarizing current step was used to evoke a stable baseline of action potentials (Figure 2A) in the absence or presence of locally applied CCL2 (1min) onto the recorded cell.
Ganglia from L4 to L6 dorsal roots were harvested from CCI animals, 4 to 19 days post-surgery. The tissue was enzymatically digested at 37°C for 90 min with collagenase-A (2 mg/mL) and papain (1 mg/mL) in DMEM. […]
DRG cells maintained for 1-3 days in culture were transferred to a recording chamber fixed to the stage of an inverted microscope (Olympus) and constantly perfused (0.5 mL/min) with Dulbecco's phosphate buffered saline (PBS), a standard extracellular bathing solution containing (in mM): 137 NaCl; 8.1 Na2HPO4•7H2O; 2.68 KCl; 1.47 KH2PO4; 0.9 CaCl2; 0.5 MgCl2•6H2O at pH 7 and 275 to 290 mOsm. […] Signals were filtered at 1 kHz, digitized at 10 kHz (Digidata, Molecular Devices) and captured and analyzed off-line (Pclamp9 software, Molecular Devices). Action potentials were recorded with borosilicate glass patch pipettes (2-6 MΩ) filled with solution containing (in mM): 110 K-gluconate, 20 KCl, 10 EGTA, 8 NaCl, 10 HEPES, 1 MgCl2 and 4 Mg-ATP at pH 7.3. […]

CCI rats = assay: Thermal (heat) hyperalgesia (paw withdrawal latency) in CCI neuropathic rats; format: in vivo, rat; conditions: p.o., tested 1 h after dosing
Excerpt: Chronic nerve constriction injury (CCI) was induced as described previously [38] in male Sprague-Dawley rats weighing 125-150 g at the time of surgery. Briefly, under isoflurane anaesthesia, a small incision was made 0.5 cm below the pelvis, and the biceps femoris and the gluteus superficialis (left side) were separated. The sciatic nerve was exposed, isolated, and four loose ligatures (4-0 chromic gut) with 1 mm spacing were placed around it. The nerve was placed back in its natural position and the incision sealed with tissue adhesive (VetbondTM). The animals were allowed to recover for 7-10 days before conducting any behavioural testing. Animals that were not gaining weight or were showing clinical signs of distress (e.g. paralysis, self-mutilation, extensive alopecia) were not included in this study.
Animals were brought to the laboratory 24 h prior to behavioural testing for acclimatization. […] Paw withdrawal latencies were calculated as the mean of two trials conducted with 5 min intervals between measures.
CCI rats and their corresponding naïve controls were used throughout this study. […] In order to assess behavioural pathology, baseline hyperalgesia was determined 1-2 days before pharmacological testing. […] The percentage of anti-hyperalgesia for each rat was calculated according to the following equation: % anti-hyperalgesia = [(value-vehicle)/(naïve-vehicle)]*100.

rats = assay: Side effects during behavioural studies (locomotor activity assay, muscle tone, overt signs); format: in vivo, rat; conditions: highest dose (pregabalin 100 mg/kg p.o.); data not shown
[6] = Additional file 1 Figure S1, average of 3 independent experiments

Compound: COc1ccc2c(c1)CC[C@@H]1[C@@H]2CC[C@]2(C)[C@@H](NCCCCCCN3C(=O)C=CC3=O)CC[C@@H]12 [U73122]
- effect on CCL2-evoked calcium mobilization in DRG neurons [1]: significant block of the calcium rise peak; also recorded: significantly blocked

Compound: rCCL2: rat CC chemokine ligand 2 (monocyte chemoattractant protein-1), CCR2 agonist, purchased from R&D Systems
- EC50 (rat CCR2 receptor; [6]): 0.8 nM
- mean calcium rise peak in neurons [2]: 142.5 ± 87.8%
- calcium response in DRG cells from naive rats [3]: did not evoke any response
- calcium response in non-neuronal cells [4]: 57.8 ± 42.3%
- increase in evoked firing compared to vehicle ([5]; CCL2 10 nM, local application 1 min, n = 3): 29 ± 9%
- increase in evoked firing (facilitated neuronal firing) ([5]; rCCL2 100 nM, n = 6): 46 ± 13%

Compound: mCCL2: mouse CC chemokine ligand 2 (monocyte chemoattractant protein-1), CCR2 agonist, purchased from R&D Systems
- EC50 (rat CCR2 receptor; [6]): 0.5 nM
- EC50 (rat CCR2 receptor; Figure 1A): 1 nM

Compound: CC(C)C[C@H](CN)CC(=O)O [Pregabalin]
- potency in reducing heat hyperalgesia, fold lower than AZ889 (CCI rats): 10 fold
- muscle tone (rats): clear decrease in muscle tone

From article PMC3009975, “Blocking spinal CCR2 with AZ889 reversed hyperalgesia in a model of neuropathic pain” (Molecular Pain, 2010)
